# Test results: patent publication US6894050B2, “5-HT receptor ligands and uses thereof” (Pfizer Inc., priority 2001, dated 2005)
# What was measured:
# [1] = molecular target: T1, 5-HT2c receptor (5-HT2c expressed NIH 3T3 cells) (UniProt P28335); test: Functional Assay (FLIPR calcium fluorescence, Fluo 4-AM); format: cell-based
# T1 sequence (P28335 1-458): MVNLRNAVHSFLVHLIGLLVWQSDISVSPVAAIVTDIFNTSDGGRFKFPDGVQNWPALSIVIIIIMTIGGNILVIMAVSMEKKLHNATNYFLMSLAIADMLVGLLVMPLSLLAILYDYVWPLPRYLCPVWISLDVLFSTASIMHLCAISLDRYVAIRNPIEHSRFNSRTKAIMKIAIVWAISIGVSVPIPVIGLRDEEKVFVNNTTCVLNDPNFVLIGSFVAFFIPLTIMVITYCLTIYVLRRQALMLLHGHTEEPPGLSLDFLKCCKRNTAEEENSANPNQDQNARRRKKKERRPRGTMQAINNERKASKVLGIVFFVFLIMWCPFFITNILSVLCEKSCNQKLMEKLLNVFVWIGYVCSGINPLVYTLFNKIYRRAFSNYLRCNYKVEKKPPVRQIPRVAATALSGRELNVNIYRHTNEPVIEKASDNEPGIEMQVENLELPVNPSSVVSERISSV
# Procedure: […] Forty eight (48) hrs later the cells were loaded with the calcium sensitive dye, Fluo 4-AM (4 μM dissolved in DMSO containing pluronic acid) in serum free DMEM in the presence of probenicid (2.5 mM) for 75 minutes at 37° C. in a CO2 incubator. Unincorporated dye was removed by washing 3 times with a HEPES-buffered saline containing probenicid (2.5 mM) using a Skatron™ cell washer (final volume 30 μL).
# Test compound additions were made simultaneously to all 384 wells after 20 seconds of baseline recording. Concentration-response curves were generated using Graphpad Prism™ (available from GraphPad Software, Inc., San Diego, Calif.) and agonist efficacies were generated as % of the response to 10 μM 5-HT (considered as 100%).
# [2] = test system: anaesthetised rabbit model of sexual arousal; test: Pelvic nerve-stimulated genital blood flow in the anaesthetised rabbit model of sexual arousal; format: in vivo; details: 5 mg/kg s.c.; for Compound-induced potentiation of stimulated vaginal blood flow: %
# Procedure: Female New Zealand rabbits (˜2.5 kg) were pre-medicated with a combination of Medetomidine (Domitor®) 0.5 ml/kg intramuscularly (i.m.), and Ketamine (Vetalar®) 0.25 ml/kg i.m. whilst maintaining oxygen intake via a face mask. The rabbits were tracheotomised using a Portex™ uncuffed endotracheal tube 3 ID (internal diameter), connected to ventilator and maintained at a ventilation rate of 30-40 breaths per minute, with an approximate tidal volume of 18-20 ml, and a maximum airway pressure of 10 cm H2O. Anaesthesia was then switched to Isoflurane® and ventilation continued with O2 at 2 l/min. The right marginal ear vein was cannulated using a 23G or 24G catheter, and Lactated Ringer solution perfused at 0.5 ml/min. The rabbit was maintained at 3% Isoflurane® during invasive surgery, dropping to 2% for maintenance anaesthesia.
# The left groin area of the rabbit was shaved and a vertical incision was made approximately 5 cm in length along the thigh. The femoral vein and artery were exposed, isolated and then cannulated with a PVC catheter (17G) for the infusion of drugs and compounds. Cannulation was repeated for the femoral artery, inserting the catheter to a depth of 10 cm to ensure that the catheter reached the abdominal aorta. This arterial catheter was linked to a Gould system to record blood pressure. Samples for blood gas analysis were also taken via the arterial catheter. Systolic and diastolic pressures were measured, and the mean arterial pressure calculated using the formula (diastolic×2+systolic)÷3. Heart rate was measured via the pulse oxymeter and Po-ne-mah data acquisition software system (Ponemah Physiology Platform, Gould Instrument Systems Inc).
# A ventral midline incision was made into the abdominal cavity. The incision was about 5 cm in length just above the pubis. The fat and muscle was bluntly dissected away to reveal the hypogastric nerve which runs down the body cavity. It was essential to keep close to the side curve of the pubis wall in order to avoid damaging the femoral vein and artery, which lie above the pubis. The sciatic and pelvic nerves lie deeper and were located after further dissection on the dorsal side of the rabbit. Once the sciatic nerve is identified, the pelvic nerve was easily located. The term pelvic nerve is loosely applied; anatomy books on the subject fail to identify the nerves in sufficient detail. However, stimulation of the nerve causes an increase in vaginal and clitoral blood flow, and innervation of the pelvic region. The pelvic nerve was freed away from surrounding tissue and a Harvard bipolar stimulating electrode was placed around the nerve. The nerve was slightly lifted to give some tension, then the electrode was secured in position. Approximately 1 ml of light paraffin oil was placed around the nerve and electrode. This acts as a protective lubricant to the nerve and prevents blood contamination of the electrode. The electrode was connected to a Grass S88 Stimulator. The pelvic nerve was stimulated using the following parameters:—5V, pulse width 0.5 ms, duration of stimulus 10 seconds and a frequency range of 2 to 16 Hz. Reproducible responses were obtained when the nerve was stimulated every 15-20 minutes. A frequency response curve was determined at the start of each experiment in order to determine the optimum frequency to use as a sub-maximal response, normally 4 Hz. A ventral midline incision was made, at the caudal end of the pubis, to expose the pubic area. Connective tissue was removed to expose the tunica of the clitoris, ensuring that the wall was free from small blood vessels. The external vaginal wall was also exposed by removing any connective tissue. One laser Doppler flow probe was inserted 3 cm into the vagina, so that half the probe shaft was still visible. A second probe was positioned so that it lay just above the external clitoral wall. The position of these probes was then adjusted until a signal was obtained. […]
structure (smiles),measurement,setting,value
"Clc1cccc(COc2cncc(N3CCNCC3)n2)c1Cl [Example 1-AO, 6′-(2,3-Dichloro-benzyloxy)-3,4,5,6-tetrahydro-2H-[1,2′]bipyrazinyl]",functional behaviour at 5-HT2c,[1],acted as an antagonist
"CN1CCN(c2cncc(OCc3cccc(Cl)c3)n2)CC1 [Example 1-AS, 6′-(3-Chloro-benzyloxy)-4-methyl-3,4,5,6-tetrahydro-2H-[1,2′]bipyrazinyl]",functional behaviour at 5-HT2c,[1],acted as an antagonist
"Clc1cc(Cl)cc(COc2cncc(N3CCNCC3)n2)c1 [Example 1-N, 6′-(3,5-Dichloro-benzyloxy)-3,4,5,6-tetrahydro-2H-[1,2′]bipyrazinyl]",functional behaviour at 5-HT2c,[1],acted as an antagonist
"Cl.Fc1ccc(CNc2cncc(N3CCNCC3)n2)cc1 [Example 4-D, (4-Fluoro-benzyl)-(3,4,5,6-tetrahydro-2H-[1,2′]bipyrazinyl-6′-yl)-amine hydrochloride salt]",functional behaviour at 5-HT2c,[1],acted as an antagonist
"CC(Oc1cncc(N2CCNCC2)n1)c1cc(F)cc(F)c1 (stereo not drawn) [Example 1-Z, 6′-[1-(3,5-Difluoro-phenyl)-ethoxy]-3,4,5,6-tetrahydro-2H-[1,2′]bipyrazinyl]",functional behaviour at 5-HT2c,[1],acted as an antagonist
"O=C1Nc2cc(Cl)c(Cl)cc2N2CCNCC12 (stereo not drawn) [8,9-dichloro-2,3,4,4a-tetrahydro-1H-pyrazino[1,2-a]quinoxalin-5(6H)-one]",time after s.c. dosing at which potentiation was significant,[2],30 min
same,time potentiation remained elevated,[2],circa 1 hr
same,effect on pelvic-nerve stimulated (PNS) increases in vaginal and clitoral blood flow,[2]; anaesthetised rabbit,potent enhancer
same,potentiation of pelvic nerve stimulated increases in genital blood flow,[2]; anaesthetised rabbit,circa 35%
same,effect on basal genital blood flow in the absence of PNS,[2]; no pelvic nerve stimulation,no effect
same,Pelvic nerve stimulated increases in vaginal blood flow,[2]; 15 min after injection,292 Laser Doppler units
same,Unstimulated vaginal blood flow,[2]; 15 min after injection,185 Laser Doppler units
same,Compound-induced potentiation of stimulated vaginal blood flow,[2]; 15 min after injection,21%
same,Pelvic nerve stimulated increases in vaginal blood flow,[2]; 30 min after injection,325 Laser Doppler units
same,Unstimulated vaginal blood flow,[2]; 30 min after injection,162 Laser Doppler units
same,Compound-induced potentiation of stimulated vaginal blood flow,[2]; 30 min after injection,34%
same,Pelvic nerve stimulated increases in vaginal blood flow,[2]; 45 min after injection,295 Laser Doppler units
same,Unstimulated vaginal blood flow,[2]; 45 min after injection,150 Laser Doppler units
same,Compound-induced potentiation of stimulated vaginal blood flow,[2]; 45 min after injection,22%
same,Pelvic nerve stimulated increases in vaginal blood flow,[2]; 60 min after injection,325 Laser Doppler units
same,Unstimulated vaginal blood flow,[2]; 60 min after injection,127 Laser Doppler units
same,Compound-induced potentiation of stimulated vaginal blood flow,[2]; 60 min after injection,34%
same,Pelvic nerve stimulated increases in vaginal blood flow,[2]; 75 min after injection,252 Laser Doppler units
same,Unstimulated vaginal blood flow,[2]; 75 min after injection,137 Laser Doppler units
same,Compound-induced potentiation of stimulated vaginal blood flow,[2]; 75 min after injection,4%
same,Pelvic nerve stimulated increases in vaginal blood flow,[2]; 90 min after injection,247 Laser Doppler units
same,Unstimulated vaginal blood flow,[2]; 90 min after injection,132 Laser Doppler units
same,Compound-induced potentiation of stimulated vaginal blood flow,[2]; 90 min after injection,2%
"C[C@@H](Oc1cncc(N2CCNCC2)n1)c1ccccc1 [Example 1-AE, 6′-[(1R)-Phenyl-ethoxy]-3,4,5,6-tetrahydro-2H-[1,2′]bipyrazinyl]",functional behaviour at 5-HT2c,[1],acted as an antagonist
"Clc1ccc(COc2cncc(N3CCNCC3)n2)cc1 [Example 1-R, 6′-(4-Chloro-benzyloxy)-3,4,5,6-tetrahydro-2H-[1,2′]bipyrazinyl]",functional behaviour at 5-HT2c,[1],acted as an antagonist
"C[C@@H]1CN(c2cncc(OCc3cccc(Cl)c3)n2)CCN1 [Example 1-U, 6′-(3-Chloro-benzyloxy)-(3R)-methyl-3,4,5,6-tetrahydro-2H-[1,2′]bipyrazinyl]",functional behaviour at 5-HT2c,[1],acted as an antagonist
"C[C@@H]1CNCCN1c1cncc(OCc2ccccc2F)n1 [Example 1-AH, 6′-(2-Fluoro-benzyloxy)-(2R)-methyl-3,4,5,6-tetrahydro-2H-[1,2′]bipyrazinyl]",functional behaviour at 5-HT2c,[1],acted as an antagonist
"C[C@@H]1CN(c2cncc(OCc3cccc(Cl)c3)n2)C[C@H](C)N1 [Example 1-V, 6′-(3-Chloro-benzyloxy)-(3R,5S)-dimethyl-3,4,5,6-tetrahydro-2H-[1,2′]bipyrazinyl]",activity at 10 μM,[1]; 10 μM,no activity
